# Data reported in publication PMC11968843, “Sulphostin-inspired N-phosphonopiperidones as selective covalent DPP8 and DPP9 inhibitors” (Nature Communications, 2025).
# Where two headings read alike, the source gives them in different places.
# How the values were obtained:
# Format in all cases: biochemical
# DPP4 [1] = target: T1, DPP4 (Homo sapiens, UniProt P27487); experiment: biochemical
# T1 construct: purchased Proteros Biostructures GmbH, Germany
# Protocol: (§1) Enzyme activity of DPP4, DPP8, DPP9 (Proteros Biostructures GmbH, Germany) and PREP (Sigma Aldrich, USA) was determined by measuring the initial velocity of AMC release from the fluorogenic substrate GP-AMC (Sigma Aldrich, USA) using a Tecan Spark® 10 M multimode microplate reader (Tecan Group Ltd., Switzerland) in activity buffer (20 mM HEPES/KOH pH 7.3, 110 mM potassium acetate, 2 mM Mg acetate, 0.5 mM EGTA, 0.02% Tween 20, supplemented with 1 mM DTT) and a final volume of 20 μL for maximal 60 min at 30 °C. Prior to activity measurement, 10 nM enzyme was incubated for 45 min at 30 °C and gentle shaking with the inhibitor compounds in concentrations ranging from 0 to 100 μM. The compounds were dissolved in DMSO and diluted in activity buffer (final DMSO concentration: 1%). […] IC50 values were calculated using Graph-Pad Prism v10.2.3 using the equation: [Inhibitor] vs. response—Variable slope (four parameters). All measurements were performed in triplicates and error bars represent standard errors of the fit.
# DPP8 [2] = target: T2, DPP8 (Homo sapiens, UniProt Q6V1X1); experiment: biochemical
# T2 construct: purchased Proteros Biostructures GmbH, Germany
# T2 sequence (Q6V1X1 whole entry): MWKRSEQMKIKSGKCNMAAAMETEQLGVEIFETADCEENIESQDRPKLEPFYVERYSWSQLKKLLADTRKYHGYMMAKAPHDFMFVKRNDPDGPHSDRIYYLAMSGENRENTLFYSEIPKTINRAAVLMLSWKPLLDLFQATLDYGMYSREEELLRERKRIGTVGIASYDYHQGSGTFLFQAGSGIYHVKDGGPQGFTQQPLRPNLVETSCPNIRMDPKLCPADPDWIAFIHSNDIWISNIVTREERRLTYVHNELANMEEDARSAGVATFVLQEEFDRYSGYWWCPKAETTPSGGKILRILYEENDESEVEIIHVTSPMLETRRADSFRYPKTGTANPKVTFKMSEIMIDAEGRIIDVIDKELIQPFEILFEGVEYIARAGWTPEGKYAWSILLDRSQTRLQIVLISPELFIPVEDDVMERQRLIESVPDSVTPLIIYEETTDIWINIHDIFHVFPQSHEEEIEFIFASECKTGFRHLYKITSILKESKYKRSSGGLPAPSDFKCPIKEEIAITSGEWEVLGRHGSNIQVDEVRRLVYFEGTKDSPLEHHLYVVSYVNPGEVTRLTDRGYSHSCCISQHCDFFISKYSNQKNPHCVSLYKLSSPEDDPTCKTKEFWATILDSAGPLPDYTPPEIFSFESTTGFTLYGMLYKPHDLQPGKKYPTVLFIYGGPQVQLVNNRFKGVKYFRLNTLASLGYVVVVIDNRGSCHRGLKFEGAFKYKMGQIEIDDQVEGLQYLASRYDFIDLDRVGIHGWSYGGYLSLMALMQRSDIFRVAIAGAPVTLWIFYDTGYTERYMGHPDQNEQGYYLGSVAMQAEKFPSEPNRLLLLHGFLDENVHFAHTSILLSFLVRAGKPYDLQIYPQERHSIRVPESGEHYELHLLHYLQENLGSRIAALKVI
# Protocol: as §1
# DPP4 [3] = target: T1, DPP4; details: DPP4, n=3
# Protocol: To calculate the reaction rate of covalent bond formation between DPP proteins and inhibitor, kinact, KI and kapp was determined as previously described[30],[51]. […] Enzyme activity was measured for a maximum of 120 min at 30 °C, and fluorescence intensities were then plotted against time. Data was fitted to the following equation: Y=(vi/kobs)*(1−exp(−kobs*X)) using Graph-Pad Prism v10.2.3. The obtained pseudo-first-order rate constant was used to determine the maximum enzyme inhibition rate (kinact) and binding affinity (KI) by fitting the plot of kobs against inhibitor concentration to the following equation: Y=kinact/1+(KI/[I]) . The efficiency of covalent bond formation (kapp) was calculated by the ratio of kinact/KI. All measurements were performed in triplicates and error bars represent standard errors of the fit.
# DPP8 [4] = target: T2, DPP8; experiment: Time-dependent DPP8 inhibition kinetics (kobs, KI, kinact, kapp); details: for kobs: n=3
# Protocol: (§2) To calculate the reaction rate of covalent bond formation between DPP proteins and inhibitor, kinact, KI and kapp was determined as previously described[30],[51]. Therefore, 250 µM GP-AMC was added simultaneously with a serial dilution of the inhibitor to 10 nM enzyme. Enzyme activity was measured for a maximum of 120 min at 30 °C, and fluorescence intensities were then plotted against time. Data was fitted to the following equation: Y=(vi/kobs)*(1−exp(−kobs*X)) using Graph-Pad Prism v10.2.3. The obtained pseudo-first-order rate constant was used to determine the maximum enzyme inhibition rate (kinact) and binding affinity (KI) by fitting the plot of kobs against inhibitor concentration to the following equation: Y=kinact/1+(KI/[I]) . The efficiency of covalent bond formation (kapp) was calculated by the ratio of kinact/KI. All measurements were performed in triplicates and error bars represent standard errors of the fit.
# DPP9 [5] = target: T3, DPP9 (Homo sapiens, UniProt Q86TI2); experiment: biochemical; set-up: purchased Proteros Biostructures GmbH, Germany
# T3 sequence (Q86TI2 whole entry): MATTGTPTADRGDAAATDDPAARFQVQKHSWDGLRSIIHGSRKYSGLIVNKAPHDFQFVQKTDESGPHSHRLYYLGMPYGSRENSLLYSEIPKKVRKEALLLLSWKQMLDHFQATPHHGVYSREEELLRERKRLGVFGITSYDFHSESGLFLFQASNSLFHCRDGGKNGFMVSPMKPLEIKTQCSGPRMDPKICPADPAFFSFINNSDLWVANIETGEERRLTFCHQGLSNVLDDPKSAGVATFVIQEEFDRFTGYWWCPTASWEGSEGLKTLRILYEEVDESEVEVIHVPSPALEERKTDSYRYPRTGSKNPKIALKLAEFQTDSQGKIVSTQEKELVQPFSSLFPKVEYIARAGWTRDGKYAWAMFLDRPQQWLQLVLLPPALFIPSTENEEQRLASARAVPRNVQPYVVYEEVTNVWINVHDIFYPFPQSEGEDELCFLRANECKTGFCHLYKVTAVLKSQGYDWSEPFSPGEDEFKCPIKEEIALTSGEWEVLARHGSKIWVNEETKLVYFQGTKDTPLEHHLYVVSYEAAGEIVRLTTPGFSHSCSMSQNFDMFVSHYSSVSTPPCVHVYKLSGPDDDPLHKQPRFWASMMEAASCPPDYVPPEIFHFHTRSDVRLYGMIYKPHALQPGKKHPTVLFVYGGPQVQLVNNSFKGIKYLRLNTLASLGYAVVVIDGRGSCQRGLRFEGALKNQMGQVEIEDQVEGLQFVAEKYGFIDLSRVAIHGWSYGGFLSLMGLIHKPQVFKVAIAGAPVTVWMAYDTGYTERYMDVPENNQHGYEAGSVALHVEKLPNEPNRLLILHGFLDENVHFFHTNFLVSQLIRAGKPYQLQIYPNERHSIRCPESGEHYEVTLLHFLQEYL
# Protocol: as §1
# DPP9 [6] = target: T3, DPP9; experiment: Time-dependent DPP9 inhibition kinetics (kobs, KI, kinact, kapp); set-up: purchased Proteros Biostructures GmbH, Germany; details: DPP9, n=3
# Protocol: as §2
# T1 sequence (P27487 whole entry): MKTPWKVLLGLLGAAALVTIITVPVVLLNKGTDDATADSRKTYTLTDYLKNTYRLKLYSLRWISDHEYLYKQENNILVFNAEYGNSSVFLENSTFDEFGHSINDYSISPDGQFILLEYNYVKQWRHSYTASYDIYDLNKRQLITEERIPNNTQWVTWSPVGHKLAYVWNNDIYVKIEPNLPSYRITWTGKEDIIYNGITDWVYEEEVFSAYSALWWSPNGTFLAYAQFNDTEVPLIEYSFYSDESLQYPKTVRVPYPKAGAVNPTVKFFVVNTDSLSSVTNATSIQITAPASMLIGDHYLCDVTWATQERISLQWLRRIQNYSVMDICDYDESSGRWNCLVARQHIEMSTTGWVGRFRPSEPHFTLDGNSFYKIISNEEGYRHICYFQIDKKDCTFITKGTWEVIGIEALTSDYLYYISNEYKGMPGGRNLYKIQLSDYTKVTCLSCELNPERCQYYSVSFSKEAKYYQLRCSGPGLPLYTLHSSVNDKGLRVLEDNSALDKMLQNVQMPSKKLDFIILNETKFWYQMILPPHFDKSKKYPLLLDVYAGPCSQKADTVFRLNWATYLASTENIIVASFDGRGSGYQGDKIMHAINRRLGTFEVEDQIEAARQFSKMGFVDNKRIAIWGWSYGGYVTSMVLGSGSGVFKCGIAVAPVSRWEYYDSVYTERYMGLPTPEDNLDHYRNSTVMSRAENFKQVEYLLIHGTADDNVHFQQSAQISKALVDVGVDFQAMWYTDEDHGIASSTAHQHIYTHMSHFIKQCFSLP
structure (smiles),measurement,setting,value
CCCCCCP(=O)(OCC)N1CCC[C@H](N)C1=O (some centres unmarked) [Compound 5],IC50,"DPP4 [1]; IC50 DPP4, GP-AMC 250 µM, 10 nM enzyme, 45 min pre-incubation at 30 °C",46.7 µM
same,remaining activity at 1.5625 µM,"DPP4 [1]; read-out: DPP4 activity [%], c 1562.5 nM, replicates",101%
same,remaining activity at 3.125 µM,"DPP4 [1]; read-out: DPP4 activity [%], c 3125 nM, replicates",103%
same,remaining activity at 6.25 µM,"DPP4 [1]; read-out: DPP4 activity [%], c 6250 nM, replicates",105%
same,remaining activity at 25 µM,"DPP4 [1]; read-out: DPP4 activity [%], c 25000 nM, replicates",79.6%
same,remaining activity at 50 µM,"DPP4 [1]; read-out: DPP4 activity [%], c 50000 nM, replicates",44.3%
same,remaining activity at 100 µM,"DPP4 [1]; read-out: DPP4 activity [%], c 100000 nM, replicates",23.3%
same,IC50,DPP8 [2],13.7 µM
same,remaining activity at 1.5625 µM,"DPP8 [2]; read-out: DPP8 activity [%], c 1562.5 nM, replicates",94.2%
same,remaining activity at 3.125 µM,"DPP8 [2]; read-out: DPP8 activity [%], c 3125 nM, replicates",84.3%
same,remaining activity at 6.25 µM,"DPP8 [2]; read-out: DPP8 activity [%], c 6250 nM, replicates",64.1%
same,remaining activity at 15.625 µM,"DPP8 [2]; read-out: DPP8 activity [%], c 15625 nM, replicates",42.1%
same,remaining activity at 25 µM,"DPP8 [2]; read-out: DPP8 activity [%], c 25000 nM, replicates",28.4%
same,remaining activity at 31.25 µM,"DPP8 [2]; read-out: DPP8 activity [%], c 31250 nM, replicates",19.4%
same,remaining activity at 50 µM,"DPP8 [2]; read-out: DPP8 activity [%], c 50000 nM, replicates",13.9%
same,remaining activity at 62.5 µM,"DPP8 [2]; read-out: DPP8 activity [%], c 62500 nM, replicates",4.38%
same,remaining activity at 100 µM,"DPP8 [2]; read-out: DPP8 activity [%], c 100000 nM, replicates",5.19%
same,kobs,DPP4 [3]; c 25000 nM,0.001878 s⁻¹
same,kobs,DPP4 [3]; c 50000 nM,0.001819 s⁻¹
same,kobs,DPP4 [3]; c 100000 nM,0.001824 s⁻¹
same,kapp,DPP8 [4]; DPP8,36.00 M⁻¹ s⁻¹
same,kinact best fit,DPP8 [4]; DPP8,0.0004148 s⁻¹
same,kobs,"DPP8 [4]; DPP8, c 1562.5 nM",9.14e-05 s⁻¹
same,kobs,"DPP8 [4]; DPP8, c 6250 nM",0.000151 s⁻¹
same,kobs,"DPP8 [4]; DPP8, c 25000 nM",0.000235 s⁻¹
same,kobs,"DPP8 [4]; DPP8, c 50000 nM",0.00037 s⁻¹
same,kapp DPP8,DPP8 [4]; ratio kinact/KI,36 M⁻¹ s⁻¹
same,KI (inactivation),"DPP8 [4]; read-out: KI DPP8, irreversible inhibition, fit of kobs vs inhibitor concentration",11.5 µM
same,KI (inactivation),"DPP8 [4]; read-out: KI best fit, DPP8",11.5 µM
same,KI (inactivation),"DPP8 [4]; read-out: KI best fit, DPP8, fit of kobs vs inhibitor concentration",11.5 µM
same,kinact,"DPP8 [4]; read-out: kinact DPP8, irreversible inhibition, fit of kobs vs inhibitor concentration",0.00042 ± 7e-05 s⁻¹
same,kinact,"DPP8 [4]; read-out: kinact best fit, DPP8",0.000415 s⁻¹
same,IC50,DPP9 [5],42.7 µM
same,remaining activity at 1.5625 µM,"DPP9 [5]; read-out: DPP9 activity [%], c 1562.5 nM, replicates",97%
same,remaining activity at 3.125 µM,"DPP9 [5]; read-out: DPP9 activity [%], c 3125 nM, replicates",96.9%
same,remaining activity at 6.25 µM,"DPP9 [5]; read-out: DPP9 activity [%], c 6250 nM, replicates",89.1%
same,remaining activity at 15.625 µM,"DPP9 [5]; read-out: DPP9 activity [%], c 15625 nM, replicates",77.4%
same,remaining activity at 25 µM,"DPP9 [5]; read-out: DPP9 activity [%], c 25000 nM, replicates",65.7%
same,remaining activity at 31.25 µM,"DPP9 [5]; read-out: DPP9 activity [%], c 31250 nM, replicates",60.7%
same,remaining activity at 50 µM,"DPP9 [5]; read-out: DPP9 activity [%], c 50000 nM, replicates",45.5%
same,remaining activity at 62.5 µM,"DPP9 [5]; read-out: DPP9 activity [%], c 62500 nM, replicates",38.8%
same,remaining activity at 100 µM,"DPP9 [5]; read-out: DPP9 activity [%], c 100000 nM, replicates",22.1%
same,remaining activity at 250 µM,"DPP9 [5]; read-out: DPP9 activity [%], c 250000 nM, replicates",5.77%
same,remaining activity at 500 µM,"DPP9 [5]; read-out: DPP9 activity [%], c 500000 nM, replicates",1.09%
same,kobs,DPP9 [6]; c 25000 nM,0.000207 s⁻¹
same,kobs,DPP9 [6]; c 50000 nM,0.000227 s⁻¹
same,kobs,DPP9 [6]; c 100000 nM,0.000318 s⁻¹
